# Patent US20230027066A1 (Urovant Sciences GmbH, priority 2019, published 2023)
# Tested on: men and women with overactive bladder
# Test: Phase 3 study of vibegron 75 mg vs placebo and tolterodine ER 4 mg, 12 weeks, efficacy (voiding and urine volume diary)
# Type: in vivo, human
# Settings: for Daily Urgency Episodes: Reduction from Baseline at Week 12, LS Mean: vibegron 75 mg, tolterodine ER 4 mg; for Patients with 100% Reduction in UUI from Baseline to Week 12, Unadjusted n (%) / Patients with at Least 75% Reduction in UUI from Baseline to Week 12, Unadjusted n (%) / Patients with 100% Reduction in UUI from Baseline to Week 12, Adjusted n (%) / Patients with at Least 75% Reduction in UUI from Baseline to Week 12, Adjusted n (%): FAS-I; for Patients with 100% Reduction in UUI from Baseline to Week 12, Adjusted n (%) / Patients with at Least 75% Reduction in UUI from Baseline to Week 12, Adjusted n (%): MI for missing values; for 75% UUI responders, Active-Placebo CMH Difference / 100% UUI responders, Active-Placebo CMH Difference: stratified by sex; for Urgency, Change from Baseline LS Mean / Urgency, LS Mean Difference active - Placebo: baseline to Week 12
# Experimental: Enrollment of patients included individuals with OAB Wet (those with UUI, the involuntary loss of urine accompanied by urgency) and OAB Dry (those without UUI). A total of 1,518 patients were randomized across 215 study sites into one of three groups for a 12-week treatment period.
# The study consisted of a Screening Period (1 to 5 weeks), a single-blind Run-in Period (2 weeks), a randomized double-blind Treatment Period (12 weeks), and a Follow-up Period (4 weeks).
# Tolterodine ER 4 mg was the active control. […] Between the Baseline and Week 12 Visits, patients had study assessments at Week 4 and Week 8.
# The Patient Voiding Diary was used by participants (via the eDiary or paper Diary) to record the frequency of daily OAB symptoms including all micturitions, urgency, incontinence, and main reason for incontinence by selecting the respective box for each symptom occurring during the course of a given day and night.
# Urine volume data were collected separately by patients using the Urine Volume component of the eDiary, or the paper Urine Volume Chart. The Urine Volume Chart is a tool used in clinical practice and clinical investigation to assess voiding functions over a 24-hour period and is regarded as a useful instrument in the investigation of patients with voiding symptoms. Urine volume may be collected during any one (1) of the 7 Diary Days prior to the visit, and it should be recorded for ˜24 hours starting from the time the patient gets up for the day and continues until the time the patient gets up for the day on the next day.
# For the purpose of this study, the number of micturitions was defined as the number of times a patient has voided in the toilet as indicated on the Patient Voiding Diary. Average daily micturitions were calculated using the daily entries in the Patient Voiding Diary, which was completed over the 7 days prior to each study visit. Average daily number of micturitions were calculated as the total number of micturitions that occurred on a Complete Diary Day divided by the number of Complete Diary Days in the Patient Voiding Diary. A complete diary day required confirmation by the patient in the Patient Voiding Diary that all voids and leakages had been recorded for the diary day. Baseline was defined as the average number of micturitions occurring during the last evaluable diary prior to the Baseline Visit.
# The number of UUI episodes was defined as the number of times a patient had checked “urge” as the reason for accidental urine leakage. Average daily UUI episodes at each study visit were calculated in the same manner as described above for the micturition endpoint. The UUI endpoint were analyzed using only OAB Wet patients.
# For the analysis of the co-primary endpoints (change from baseline in average number of daily micturitions at Week 12 and change from baseline in average number of daily urge urinary incontinence episodes at Week 12, and placebo adjustment of each), a mixed model for repeated measure (MMRM) with restricted maximum likelihood estimation was used. This model corrects for dropout and accounts for the fact that measurements taken on the same patient over time tend to be correlated by using all available information on patients within the same covariate set to derive an estimate of the treatment effect for a dropout-free population. The analysis model for each efficacy endpoint includes terms for treatment, visit, OAB Type (Wet vs Dry), Sex (Female vs Male), Region (US vs Rest of World), baseline score, and interaction of visit by treatment.
# Primary inferences were drawn from treatment differences for the changes from baseline derived from the MMRM models at Week 12. As part of secondary objectives, the treatment differences for each post baseline visit were also derived using the same MMRM model. […]
# [1] = 50% Total Incontinence Responders, Week 2
# [2] = 50% Total Incontinence Responders, Week 4
# [3] = 50% Total Incontinence Responders, Week 8
# [4] = 50% Total Incontinence Responders, Week 12
# [5] = Cox model with sex as covariate, >1 = more treated subjects attain reduction
# [6] = Dry population, baseline to Week 2
smiles,measurement,setting,value
"Cc1ccc(O)c([C@H](CCN(C(C)C)C(C)C)c2ccccc2)c1 [Tolterodine ER, tolterodine, reference compound]","Average Volume Voided per Micturition, Mean (SD)",[1],167.1 (75.27)
same,"Average daily number of urgency episodes, Mean (SD)",[1],5.68 (3.690)
same,"Change from Baseline in Average Daily Number of Urgency Episodes, LS Mean (SE)",[1],−2.1 (0.17)
same,"Change from Baseline in Average Volume Voided per Micturition, LS Mean",[1],16.9 (4.12)
same,"Change from baseline in Percent Dry Diary Days, LS Mean",[1],23.9 (2.33) Percent
same,"Percent Dry Diary Days, Mean (SD)",[1],28.44 (35.758) Percent
same,"Average Volume Voided per Micturition, Mean (SD)",[2],171.3 (73.88)
same,"Average daily number of urgency episodes, Mean (SD)",[2],5.18 (3.663)
same,"Change from Baseline in Average Daily Number of Urgency Episodes, LS Mean (SE)",[2],−2.6 (0.18)
same,"Change from Baseline in Average Volume Voided per Micturition, LS Mean",[2],16.3 (4.38)
same,"Change from baseline in Percent Dry Diary Days, LS Mean",[2],32.6 (2.69) Percent
same,"Percent Dry Diary Days, Mean (SD)",[2],36.82 (40.267) Percent
same,"Average Volume Voided per Micturition, Mean (SD)",[3],177.7 (76.78)
same,"Average daily number of urgency episodes, Mean (SD)",[3],4.68 (3.707)
same,"Change from Baseline in Average Daily Number of Urgency Episodes, LS Mean (SE)",[3],−3.1 (0.21)
same,"Change from Baseline in Average Volume Voided per Micturition, LS Mean",[3],24.8 (4.56)
same,"Change from baseline in Percent Dry Diary Days, LS Mean",[3],40.0 (2.76) Percent
same,"Percent Dry Diary Days, Mean (SD)",[3],44.86 (40.529) Percent
same,"Average Volume Voided per Micturition, Mean (SD)",[4],175.4 (77.58)
same,"Average daily number of urgency episodes, Mean (SD)",[4],4.02 (3.539)
same,"Change from Baseline in Average Daily Number of Urgency Episodes, LS Mean (SE)",[4],−3.6 (0.22)
same,"Change from Baseline in Average Volume Voided per Micturition, LS Mean",[4],21.1 (4.74)
same,"Change from baseline in Percent Dry Diary Days, LS Mean",[4],49.7 (2.68) Percent
same,"Percent Dry Diary Days, Mean (SD)",[4],55.43 (37.734) Percent
same,"Average Volume Voided per Micturition, Mean (SD)","75% UUI Responders, Week 2",170.6 (77.20)
same,"Average daily number of urgency episodes, Mean (SD)","75% UUI Responders, Week 2",5.37 (3.577)
same,"Change from Baseline in Average Volume Voided per Micturition, LS Mean","75% UUI Responders, Week 2",17.5 (4.96)
same,"Change from baseline in average daily number of urgency episodes, LS Mean","75% UUI Responders, Week 2",−2.3 (0.21)
same,"Average Volume Voided per Micturition, Mean (SD)","75% UUI Responders, Week 4",174.8 (73.04)
same,"Average daily number of urgency episodes, Mean (SD)","75% UUI Responders, Week 4",4.93 (3.675)
same,"Change from Baseline in Average Volume Voided per Micturition, LS Mean","75% UUI Responders, Week 4",16.2 (5.27)
same,"Change from baseline in average daily number of urgency episodes, LS Mean","75% UUI Responders, Week 4",−2.8 (0.23)
same,"Average Volume Voided per Micturition, Mean (SD)","75% UUI Responders, Week 8",182.1 (77.27)
same,"Average daily number of urgency episodes, Mean (SD)","75% UUI Responders, Week 8",4.42 (3.677)
same,"Change from Baseline in Average Volume Voided per Micturition, LS Mean","75% UUI Responders, Week 8",26.1 (5.51)
same,"Change from baseline in average daily number of urgency episodes, LS Mean","75% UUI Responders, Week 8",−3.3 (0.25)
same,"Average Volume Voided per Micturition, Mean (SD)","75% UUI Responders, Week 12",177.3 (77.70)
same,"Average daily number of urgency episodes, Mean (SD)","75% UUI Responders, Week 12",3.67 (3.542)
same,"Change from Baseline in Average Volume Voided per Micturition, LS Mean","75% UUI Responders, Week 12",19.1 (5.83)
same,"Change from baseline in average daily number of urgency episodes, LS Mean","75% UUI Responders, Week 12",−3.9 (0.27)
same,"Daily Urgency Episodes: Reduction from Baseline at Week 12, LS Mean",Age ≥65 years,−2.1
same,"Daily Urgency Episodes: Reduction from Baseline at Week 12, LS Mean",Age ≥75 years,−2.4
same,"Daily Urgency Episodes: Reduction from Baseline at Week 12, LS Mean",All patients,−2.5
same,"Patients with 100% Reduction in UUI from Baseline to Week 12, Unadjusted n (%)",Baseline Number of UUI <3,62 (33.2) n (%)
same,"Patients with at Least 75% Reduction in UUI from Baseline to Week 12, Unadjusted n (%)",Baseline Number of UUI <3,98 (52.4) n (%)
same,"Patients with 100% Reduction in UUI from Baseline to Week 12, Adjusted n (%)",Baseline Number of UUI <3,54 (29.0) n (%)
same,"Patients with at Least 75% Reduction in UUI from Baseline to Week 12, Adjusted n (%)",Baseline Number of UUI <3,91 (48.4) n (%)
same,"75% UUI responders, Active-Placebo CMH Difference",Baseline Number of UUI <3,10.1
same,"100% UUI responders, Active-Placebo CMH Difference",Baseline Number of UUI <3,1.5
same,"Patients with 100% Reduction in UUI from Baseline to Week 12, Unadjusted n (%)",Baseline Number of UUI ≥3,23 (17.4) n (%)
same,"Patients with at Least 75% Reduction in UUI from Baseline to Week 12, Unadjusted n (%)",Baseline Number of UUI ≥3,54 (40.9) n (%)
same,"Patients with 100% Reduction in UUI from Baseline to Week 12, Adjusted n (%)",Baseline Number of UUI ≥3,13 (9.6) n (%)
same,"Patients with at Least 75% Reduction in UUI from Baseline to Week 12, Adjusted n (%)",Baseline Number of UUI ≥3,44 (33.7) n (%)
same,"75% UUI responders, Active-Placebo CMH Difference",Baseline Number of UUI ≥3,8.4
same,"100% UUI responders, Active-Placebo CMH Difference",Baseline Number of UUI ≥3,2.6
same,"Hazard Ratio, 50% reduction in urgency episodes, Compared to Placebo Using Proportional Hazards",[5],1.225
same,"Hazard Ratio, 100% reduction in UUI episodes, Compared to Placebo Using Proportional Hazards",[5],1.141
same,"Urgency, Change from Baseline LS Mean","Dry population, Age <65",−2.3 (57)
same,"Urgency, LS Mean Difference active - Placebo","Dry population, Age <65",−0.8
same,"Urgency, Change from Baseline LS Mean","Dry population, Age ≥65",−1.5 (35)
same,"Urgency, LS Mean Difference active - Placebo","Dry population, Age ≥65",0.2
same,"Average daily number of urgency episodes, Mean (SD)","Dry population, Week 2",6.87 (4.260)
same,"Change from baseline in average daily number of urgency episodes, LS Mean","Dry population, Week 2",−1.4 (0.27)
same,"Urgency episodes, Active - Placebo LS Mean Difference","Dry population, Week 2",−0.6 (0.37)
same,"Average daily number of urgency episodes, Mean (SD)","Dry population, Week 4",7.03 (4.865)
same,"Change from baseline in average daily number of urgency episodes, LS Mean","Dry population, Week 4",−1.6 (0.29)
same,"Urgency episodes, Active - Placebo LS Mean Difference","Dry population, Week 4",−0.7 (0.40)
same,"Average daily number of urgency episodes, Mean (SD)","Dry population, Week 8",6.25 (4.957)
same,"Change from baseline in average daily number of urgency episodes, LS Mean","Dry population, Week 8",−2.2 (0.34)
same,"Urgency episodes, Active - Placebo LS Mean Difference","Dry population, Week 8",−1.0 (0.46)
same,"Average daily number of urgency episodes, Mean (SD)","Dry population, Week 12",6.56 (5.480)
same,"Change from baseline in average daily number of urgency episodes, LS Mean","Dry population, Week 12",−2.0 (0.36)
same,"Urgency episodes, Active - Placebo LS Mean Difference","Dry population, Week 12",−0.4 (0.49)
same,"Patients with at Least 50% Reduction in Urgency Episodes, Adjusted (%)",[6],16.3%
same,"Patients with at Least 50% Reduction in Urgency Episodes, Adjusted n",[6],16
same,"Patients with at Least 50% Reduction in Urgency Episodes, Unadjusted (%)",[6],16.3%
same,"Patients with at Least 50% Reduction in Urgency Episodes, Unadjusted n",[6],16
